Counter-ions that a name gives are not always drawn.

As usually defined, the melting point is the temperature, or range, at which the solid turns liquid.

In the case of `Nc1nc2ccccc2n1CCCCCCn1c(N)nc2ccccc21` (as salt: HCl) [Compound 1b, 1,6-Bis(2-aminobenzimidazol-1-yl)hexane], the melting point lay in the range of 145 to 147 °C. As for `Nc1nc2ccccc2n1CCCn1c(N)nc2ccccc21` [Compound 1d, 1,3-Bis(2-aminobenzimidazol-1-yl)propane], the figure is 220 °C (dec.); as for `Nc1nc2ccccc2n1CCn1c(N)nc2ccccc21` [Compound 1e, 1,2-Bis(2-aminobenzimidazol-1-yl)ethane], 257 to 258 °C.

(Values after patent US6569880B2, “Bis(benzimidazole) derivatives serving as potassium blocking agents” (Neurosearch A/S, priority 1998, dated 2003).)
